Measured values reported in ChEMBL document CHEMBL5625263, “Discovery of a novel series of selective macrocyclic PKCTheta inhibitors” (Bioorg Med Chem Lett, 2024).
In brackets after ≈: the same amount, converted by molar mass.

Tests used:
[1] = Selectivity ratio of inhibition of CLK1 (unknown origin) to inhibition of PKC theta (unknown origin) at 1 mM ATP concentration
[2] = Selectivity ratio of inhibition of GSK3beta (unknown origin) to inhibition of PKC theta (unknown origin) at 1 mM ATP concentration
[3] = Selectivity ratio of inhibition of HGK (unknown origin) to inhibition of PKC theta (unknown origin) at 1 mM ATP concentration
[4] = Selectivity ratio of inhibition of TRKA (unknown origin) to inhibition of PKC theta (unknown origin) at 1 mM ATP concentration
[5] = target: T1, Protein kinase C theta type (Homo sapiens, UniProt Q04759); assay: Inhibition of PKC theta (unknown origin) in presence of ATP at Km
[6] = Selectivity ratio of inhibition of RSK3 (unknown origin) to inhibition of PKC theta (unknown origin) at 1 mM ATP concentration
[7] = Volume of distribution at steady state in rat; assay type: ADME; conditions: in vivo, read-out: Vdss
[8] = Selectivity ratio of inhibition of PKCeta (unknown origin) to inhibition of PKC theta (unknown origin) at 1 mM ATP concentration
[9] = Selectivity ratio of inhibition of FLT3 (unknown origin) to inhibition of PKC theta (unknown origin) at 1 mM ATP concentration
[10] = target: T2, Protein kinase C alpha type (Homo sapiens, UniProt P17252); assay: Inhibition of PKC alpha (unknown origin) in presence of ATP at Km
[11] = target: T1, Protein kinase C theta type; assay: Inhibition of PKC theta (unknown origin) in presence of 1 mM ATP
[12] = target: T2, Protein kinase C alpha type; assay: Inhibition of PKC alpha (unknown origin) in presence of 1 mM ATP
[13] = Clearance in rat; assay type: ADME; conditions: in vivo
[14] = Metabolic stability in human hepatocytes assessed as intrinsic clearance measured per 10^6 cells; assay type: ADME, cell-based, Hepatocyte; conditions: read-out: CLH
[15] = Oral bioavailability in rat; assay type: ADME, organism-based; conditions: in vivo
[16] = Selectivity ratio of inhibition of PKACalpha (unknown origin) to inhibition of PKC theta (unknown origin) at 1 mM ATP concentration
[17] = Solubility of the compound; assay type: physicochemical
[18] = Selectivity ratio of inhibition of AURB (unknown origin) to inhibition of PKC theta (unknown origin) at 1 mM ATP concentration
[19] = Selectivity ratio of inhibition of MSK1 (unknown origin) to inhibition of PKC theta (unknown origin) at 1 mM ATP concentration
[20] = Selectivity ratio of inhibition of PKCdelta (unknown origin) to inhibition of PKC theta (unknown origin) at 1 mM ATP concentration
[21] = Selectivity ratio of inhibition of PKCbeta1 (unknown origin) to inhibition of PKC theta (unknown origin) at 1 mM ATP concentration
[22] = target: T1, Protein kinase C theta type; assay: Inhibition of PKC theta in TCR-stimulated human PBMC assessed as inhibition of IL-2 release; assay type: cell-based
[23] = Efflux ratio of apparent permeability across basolateral to apical side over apical to basolateral side in human Caco-2 cells; assay type: ADME, cell-based
[24] = Selectivity ratio of inhibition of PI3K-C2beta (unknown origin) to inhibition of PKC theta (unknown origin) at 1 mM ATP concentration
[25] = Apparent permeability of a compound in human Caco-2 cells; assay type: ADME, cell-based
[26] = Half life in rat; assay type: ADME; conditions: in vivo

T1 sequence (Q04759 whole entry): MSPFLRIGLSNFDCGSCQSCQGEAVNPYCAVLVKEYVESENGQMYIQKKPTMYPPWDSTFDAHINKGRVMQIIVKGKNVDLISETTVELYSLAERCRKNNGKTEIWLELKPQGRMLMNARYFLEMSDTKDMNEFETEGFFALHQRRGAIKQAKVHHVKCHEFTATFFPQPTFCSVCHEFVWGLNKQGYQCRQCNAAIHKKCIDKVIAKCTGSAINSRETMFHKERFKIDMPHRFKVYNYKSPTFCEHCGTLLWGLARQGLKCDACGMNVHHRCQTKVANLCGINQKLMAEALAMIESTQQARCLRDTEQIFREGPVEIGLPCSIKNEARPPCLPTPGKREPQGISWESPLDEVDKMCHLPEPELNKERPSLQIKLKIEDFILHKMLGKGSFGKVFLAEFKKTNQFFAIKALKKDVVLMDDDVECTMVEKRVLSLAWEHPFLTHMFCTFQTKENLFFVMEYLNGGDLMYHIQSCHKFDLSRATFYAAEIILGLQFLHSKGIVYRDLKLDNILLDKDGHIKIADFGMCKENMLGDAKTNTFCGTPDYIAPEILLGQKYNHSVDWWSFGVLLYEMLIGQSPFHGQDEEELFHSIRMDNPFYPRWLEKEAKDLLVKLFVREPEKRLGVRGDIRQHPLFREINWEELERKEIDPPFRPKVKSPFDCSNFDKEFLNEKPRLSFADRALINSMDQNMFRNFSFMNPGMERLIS

| Selectivity ratio [1] | Selectivity ratio [2] | Selectivity ratio [3] | Selectivity ratio [4] | IC50 [5] | Selectivity ratio [6] | Selectivity ratio [8] | Selectivity ratio [9] | IC50 [10] | IC50 [11] | IC50 [12] | clearance [13] | bioavailability [15] | Selectivity ratio [16] | solubility [17] | Selectivity ratio [18] | Selectivity ratio [19] | Selectivity ratio [20] | Selectivity ratio [21] | IC50 [22] | Structure (SMILES) | other results |
| --- | --- | --- | --- | --- | --- | --- | --- | --- | --- | --- | --- | --- | --- | --- | --- | --- | --- | --- | --- | --- | --- |
| > 370 | > 370 | 40 | > 370 | 2 nM | > 370 | 43 | 78 | 820 nM | 27 nM | 6000 nM | 12 mL/min/kg | 50% | > 370 | 95 µM (≈ 29.7 µg/mL) | > 370 | 142 | 99 | 188 | 58 nM | CC1CC(C)Oc2ccnc3[nH]c(=O)n(c23)-c2cccc(n2)O1 (centres undefined) | Vd [7]: 1.8 L/kg; hepatocyte CLint [14]: < 4 µL/min/1e6 cells; efflux ratio [23]: 0.6; Selectivity ratio [24]: > 370; Papp [25]: 32 ×10⁻⁶ cm/s |
| 66 | 66 | 51 | 491 | 0.9 nM | 311 | 43 | 21 | 770 nM | 12 nM | 6500 nM | 19.6 mL/min/kg | 53% | 501 | 300 µM (≈ 107 µg/mL) | 763 | 322 | 38 | 147 | 29 nM | CC1CCCOc2nc(ccc2C(N)=O)-n2c(=O)[nH]c3nccc(c32)O1 (centres undefined) | half-life [26]: 2.2 h; efflux ratio [23]: 8; Selectivity ratio [24]: 133; Papp [25]: 3.9 ×10⁻⁶ cm/s |
